Source: ChEMBL document CHEMBL1201862, “PubChem BioAssay data set” (2004)
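Each compound was tested at five concentrations against cells in 96-well plates for 48 hours. Here, GI50 denotes the concentration required for 50% inhibition of growth.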 Active and inactive are the calls of the source. Rule as the data show it: active = GI50 up to about 1.1 µM and inactive = higher.

Legend:
Assay in all cases: inhibition of tumour cell growth, NCI panel, 48 h
LOX IMVI = tested on: LOX IMVI
NCI-H522 = tested on: NCI-H522
OVCAR-8 = tested on: OVCAR-8
SR = tested on: SR
IGROV-1 = tested on: IGROV-1
NCI-H226 = tested on: NCI-H226
A498 = tested on: A498
M14 = tested on: M14
NCI/ADR-RES = tested on: NCI/ADR-RES
HCT-116 = tested on: HCT-116
Hs-578T = tested on: Hs-578T
OVCAR-5 = tested on: OVCAR-5
KM12 = tested on: KM12
A549 = tested on: A549
OVCAR-4 = tested on: OVCAR-4
NCI-H23 = tested on: NCI-H23
CCRF-CEM = tested on: CCRF-CEM
SF-268 = tested on: SF-268
SN12C = tested on: SN12C

| SMILES | GI50 (LOX IMVI) | GI50 (NCI-H522) | GI50 (OVCAR-8) | GI50 (SR) | GI50 (IGROV-1) | GI50 (NCI-H226) | GI50 (A498) | GI50 (M14) | GI50 (NCI/ADR-RES) | GI50 (HCT-116) | GI50 (Hs-578T) | GI50 (OVCAR-5) | GI50 (KM12) | GI50 (A549) | GI50 (OVCAR-4) | GI50 (NCI-H23) | GI50 (CCRF-CEM) | GI50 (SF-268) | GI50 (SN12C) |
| --- | --- | --- | --- | --- | --- | --- | --- | --- | --- | --- | --- | --- | --- | --- | --- | --- | --- | --- | --- |
| COC1=CC(=O)c2c(cc(COP(N)(=O)N(CCCl)CCCl)n2C)C1=O (stereo not drawn) | 0.0284 µM (active) | 0.0746 µM (active) | 0.433 µM (active) | 0.0603 µM (active) | 0.17 µM (active) | 0.14 µM (active) | 2.2 µM (inactive) | 0.826 µM (active) | 3.29 µM (inactive) | 0.122 µM (active) | 8.26 µM (inactive) | 1.26 µM (inactive) | 1.49 µM (inactive) | 0.918 µM (active) | 3.52 µM (inactive) | 0.7 µM (active) | < 0.0256 µM (active) | < 0.032 µM (active) | < 0.0241 µM (active) |
| Cc1ccc(C(O)c2cnc(C)n2Cc2ccccc2)cc1 (stereo not drawn) | > 100 µM (inactive) | > 100 µM (inactive) | > 100 µM (inactive) | > 100 µM (inactive) | > 100 µM (inactive) | > 100 µM (inactive) | > 100 µM (inactive) | > 100 µM (inactive) | 85.3 µM (inactive) | > 100 µM (inactive) | > 100 µM (inactive) | > 100 µM (inactive) | > 100 µM (inactive) | > 100 µM (inactive) | > 100 µM (inactive) | > 100 µM (inactive) | – | > 100 µM (inactive) | > 100 µM (inactive) |
| BC(=O)NC(CC(C)C)C(=O)NCC(=O)NC1c2ccsc2C(=O)C1O.CN(C)C (stereo not drawn) | > 100 µM (inactive) | > 100 µM (inactive) | > 100 µM (inactive) | > 100 µM (inactive) | > 100 µM (inactive) | 95.5 µM (inactive) | > 100 µM (inactive) | > 100 µM (inactive) | > 100 µM (inactive) | > 100 µM (inactive) | > 100 µM (inactive) | > 100 µM (inactive) | > 100 µM (inactive) | > 100 µM (inactive) | > 100 µM (inactive) | > 100 µM (inactive) | 31.6 µM (inactive) | > 100 µM (inactive) | > 100 µM (inactive) |
| O=C(/C(Cl)=C/c1ccccc1)c1ccccc1 | 2.11 µM (inactive) | 1.58 µM (inactive) | 2.84 µM (inactive) | 1.85 µM (inactive) | – | 7.26 µM (inactive) | 20.6 µM (inactive) | 2.28 µM (inactive) | 3.55 µM (inactive) | 1.21 µM (inactive) | 3.54 µM (inactive) | 4.42 µM (inactive) | 4.08 µM (inactive) | 10.9 µM (inactive) | 4.41 µM (inactive) | 11.1 µM (inactive) | 0.692 µM (active) | 7.06 µM (inactive) | 1.82 µM (inactive) |
| COc1ccccc1/C=C/C1=NN(c2cccc(S(=O)(=O)O)c2)C2(C1)C(Cl)C(=O)N2c1nc2ccccc2s1 (stereo not drawn) | 29.7 µM (inactive) | 9.04 µM (inactive) | > 51.4 µM (inactive) | 22.1 µM (inactive) | 28.5 µM (inactive) | 28 µM (inactive) | > 81.3 µM (inactive) | > 75.3 µM (inactive) | > 100 µM (inactive) | 61.9 µM (inactive) | > 100 µM (inactive) | > 100 µM (inactive) | 51.6 µM (inactive) | 71.4 µM (inactive) | 42.2 µM (inactive) | 31.9 µM (inactive) | 13.5 µM (inactive) | > 100 µM (inactive) | > 84.1 µM (inactive) |
| C=C1C(=O)O[C@H]2[C@@H](O)[C@H](C)CCC[C@]3(C)O[C@H]3CC[C@@]3(C)O[C@@H]3C[C@@H]12 | – | 1.12 µM (inactive) | 6.25 µM (inactive) | 1.43 µM (inactive) | 5.24 µM (inactive) | 7.43 µM (inactive) | 7.33 µM (inactive) | 6.11 µM (inactive) | 7.73 µM (inactive) | 1.75 µM (inactive) | 7.59 µM (inactive) | 6.22 µM (inactive) | 7.94 µM (inactive) | 9.33 µM (inactive) | 2.66 µM (inactive) | 6.49 µM (inactive) | 1.58 µM (inactive) | 6.07 µM (inactive) | 5.74 µM (inactive) |
| CC(CC[C@@H](O)C(C)(C)O)C1[C@@H](O)CC2(C)C3CC(O)C4C(C)(C)[C@@H](OC5OC(CO)C(O)C(O)C5O)CC[C@@]45C[C@@]35CC[C@]12C (stereo partly drawn) | – | > 10 µM (inactive) | > 10 µM (inactive) | > 10 µM (inactive) | > 10 µM (inactive) | 8.79 µM (inactive) | > 10 µM (inactive) | > 10 µM (inactive) | > 10 µM (inactive) | > 10 µM (inactive) | > 10 µM (inactive) | > 10 µM (inactive) | > 10 µM (inactive) | > 10 µM (inactive) | > 10 µM (inactive) | > 10 µM (inactive) | > 10 µM (inactive) | > 10 µM (inactive) | > 10 µM (inactive) |
| COC(=O)C1CCC(=O)N1C(c1cc(OC)c(OC)c(OC)c1)c1cccc2ccccc12 (stereo not drawn) | > 100 µM (inactive) | 51.5 µM (inactive) | > 100 µM (inactive) | 32.7 µM (inactive) | > 100 µM (inactive) | > 100 µM (inactive) | > 100 µM (inactive) | > 100 µM (inactive) | 39 µM (inactive) | > 100 µM (inactive) | 6.44 µM (inactive) | > 100 µM (inactive) | > 100 µM (inactive) | > 100 µM (inactive) | – | – | – | 15.3 µM (inactive) | > 100 µM (inactive) |
| COC(=O)C(NC(=O)C12CCC(C)(C(=O)O1)C2(C)C)c1cc(C(C)(C)C)c(O)c(C(C)(C)C)c1 (stereo not drawn) | > 100 µM (inactive) | > 100 µM (inactive) | > 100 µM (inactive) | 68.2 µM (inactive) | > 100 µM (inactive) | > 100 µM (inactive) | > 100 µM (inactive) | > 100 µM (inactive) | > 100 µM (inactive) | 64.3 µM (inactive) | 94 µM (inactive) | > 100 µM (inactive) | 23.5 µM (inactive) | > 100 µM (inactive) | > 100 µM (inactive) | > 100 µM (inactive) | 39.9 µM (inactive) | > 100 µM (inactive) | – |
| O=C(O)[C@@H]1CSCN1C(=O)[C@@H]1CCC(=S)N1 | > 100 µM (inactive) | > 100 µM (inactive) | > 100 µM (inactive) | > 100 µM (inactive) | > 100 µM (inactive) | > 100 µM (inactive) | > 100 µM (inactive) | > 100 µM (inactive) | > 100 µM (inactive) | – | > 100 µM (inactive) | > 100 µM (inactive) | > 100 µM (inactive) | > 100 µM (inactive) | – | > 100 µM (inactive) | > 100 µM (inactive) | > 100 µM (inactive) | > 100 µM (inactive) |
| [C-]#[N+]C1(C(=O)OCC)CC1 | > 100 µM (inactive) | > 100 µM (inactive) | > 100 µM (inactive) | > 100 µM (inactive) | > 100 µM (inactive) | > 100 µM (inactive) | > 100 µM (inactive) | > 100 µM (inactive) | > 100 µM (inactive) | > 100 µM (inactive) | > 100 µM (inactive) | > 100 µM (inactive) | – | > 100 µM (inactive) | > 100 µM (inactive) | > 100 µM (inactive) | > 100 µM (inactive) | > 100 µM (inactive) | > 100 µM (inactive) |
